Results on four compounds are retold here after ChEMBL document CHEMBL3132814, “Synthesis and biological evaluation of tetrahydropyridinepyrazoles (PFPs) as inhibitors of STAT3 phosphorylation” (2014).

Experiment [1] concerns HCCLM3. Kind of experiment: Inhibition of CXCL12-induced human HCCLM3 cells migration pretreated at 10 uM for 6 hrs by wound-healing assay. The experiment is classed as functional, cell-based.
Experiment [2] concerns the target Signal transducer and activator of transcription 3 (Homo sapiens) (UniProt P40763). Kind of experiment: Inhibition of STAT3 activation in human HepG2 cells assessed as inhibition of phosphorylation at tyrosine 705 at 10 uM by Western blot analysis. The format is cell-based. The note with it: TDE = time-dependent effect. For orientation: In western blotting, separated proteins are transferred to a membrane and probed.

Experiment [3] has as its system Hep 3B2. Kind of experiment: Antiproliferative activity against human Hep3B cells assessed as inhibition of cell proliferation at 10 to 100 uM by MTT dye uptake assay. The format is functional, cell-based. The following applies: TDE = time-dependent effect. (Tetrazolium assays rely on reduction of a dye to a coloured formazan, in cell work by metabolically active cells.)

The test system of experiment [4] is HepG2. Kind of experiment: Antiproliferative activity against human HepG2 cells assessed as inhibition of cell proliferation at 100 uM after 2 hrs by MTT assay. The experiment is classed as functional. The note with it: for inhibition at 100 µM: HepG2, 2 h.
Experiment [5] deals with HCCLM3. Kind of experiment: Inhibition of human HCCLM3 cells migration at 10 uM for 6 hrs by matrigel invasion assay. The experiment is classed as functional, cell-based.
Experiment [6] relates to HepG2. Kind of experiment: Antiproliferative activity against human HepG2 cells assessed as inhibition of cell proliferation after 24 to 72 hrs by MTT dye uptake assay. The format is functional, cell-based.
Another experiment has as its system PC-3. Kind of experiment: Antiproliferative activity against human PC3 cells assessed as inhibition of cell proliferation at 10 to 100 uM after 24 to 72 hrs by MTT assay. The experiment is classed as functional, cell-based.
The test system of a further experiment is MCF7. Kind of experiment: Antiproliferative activity against human MCF7 cells assessed as inhibition of cell proliferation at 100 uM after 2 hrs by MTT assay. The experiment is classed as functional. The following applies: MCF7, 2 h.
Experiment [7] addresses Signal transducer and activator of transcription 3 (Homo sapiens) (UniProt P40763). Kind of experiment: Inhibition of STAT3-DNA binding in human HepG2 cells after 6 hrs by ELISA based DNA binding assay. The experiment is classed as cell-based. On the technique in general: An ELISA detects its analyte on a solid surface through an enzyme-linked reagent.
In experiment [8] the test system is PLC-PRF-5. Kind of experiment: Antiproliferative activity against human PLC/PRF/5 cells assessed as inhibition of cell proliferation after 24 to 72 hrs by MTT dye uptake assay. The experiment is classed as functional, cell-based.
For experiment [9], the system named is PLC-PRF-5. Kind of experiment: Antiproliferative activity against human PLC/PRF/5 cells assessed as inhibition of cell proliferation at 10 to 100 uM by MTT dye uptake assay. The format is functional, cell-based. The following applies: TDE = time-dependent effect.
The target in experiment [10] is Signal transducer and activator of transcription 3 (Homo sapiens) (UniProt P40763). Kind of experiment: Inhibition of STAT3 activation in human HepG2 cells assessed as maximal inhibition of phosphorylation at tyrosine 705 at 10 uM at 4 to 6 hrs by Western blot analysis. The experiment is classed as cell-based.
For experiment [11], the system named is Huh-7. Kind of experiment: Antiproliferative activity against human HuH7 cells assessed as inhibition of cell proliferation after 24 to 72 hrs by MTT dye uptake assay. The format is functional, cell-based.
The subject of experiment [12] is HCCLM3. Kind of experiment: Inhibition of CXCL12-induced human HCCLM3 cells migration pretreated at 10 uM for 6 hrs by matrigel invasion assay. The format is functional, cell-based.
Experiment [13] relates to HepG2. Kind of experiment: Antiproliferative activity against human HepG2 cells assessed as inhibition of cell proliferation at 10 to 100 uM by MTT dye uptake assay. The note with it: TDE = time-dependent effect. The experiment is classed as functional, cell-based.
The target in experiment [14] is Proto-oncogene tyrosine-protein kinase Src (Homo sapiens) (UniProt P12931). Kind of experiment: Inhibition of Src kinase activation in human HepG2 cells assessed as inhibition of phosphorylation at 10 uM by Western blot analysis. The format is cell-based. The note with it: TDE = time-dependent effect.
Experiment [15] addresses Tyrosine-protein kinase JAK2 (Homo sapiens) (UniProt O60674). Kind of experiment: Inhibition of JAk2 activation in human HepG2 cells assessed as inhibition of phosphorylation at 10 uM by Western blot analysis. The format is cell-based. The following applies: TDE = time-dependent effect.
Experiment [16] deals with Hep 3B2. Kind of experiment: Antiproliferative activity against human Hep3B cells assessed as inhibition of cell proliferation after 24 to 72 hrs by MTT dye uptake assay. The experiment is classed as functional, cell-based.
The test system of experiment [17] is HCCLM3. Kind of experiment: Inhibition of human HCCLM3 cells migration at 10 uM for 6 hrs by wound-healing assay. The experiment is classed as functional, cell-based.
Experiment [18] deals with Huh-7. Kind of experiment: Antiproliferative activity against human HuH7 cells assessed as inhibition of cell proliferation at 10 to 100 uM by MTT dye uptake assay. The format is functional, cell-based. The note with it: TDE = time-dependent effect.
The target in experiment [19] is Signal transducer and activator of transcription 3 (Homo sapiens) (UniProt P40763). Kind of experiment: Inhibition of STAT3-DNA binding in human HepG2 cells at 10 uM after 6 hrs by ELISA based DNA binding assay. The format is cell-based.

The source made the active and inactive calls. The calls are words filed in the database; no cut-off is given here.

Signal transducer and activator of transcription 3 (Homo sapiens), sequence (P40763 whole entry): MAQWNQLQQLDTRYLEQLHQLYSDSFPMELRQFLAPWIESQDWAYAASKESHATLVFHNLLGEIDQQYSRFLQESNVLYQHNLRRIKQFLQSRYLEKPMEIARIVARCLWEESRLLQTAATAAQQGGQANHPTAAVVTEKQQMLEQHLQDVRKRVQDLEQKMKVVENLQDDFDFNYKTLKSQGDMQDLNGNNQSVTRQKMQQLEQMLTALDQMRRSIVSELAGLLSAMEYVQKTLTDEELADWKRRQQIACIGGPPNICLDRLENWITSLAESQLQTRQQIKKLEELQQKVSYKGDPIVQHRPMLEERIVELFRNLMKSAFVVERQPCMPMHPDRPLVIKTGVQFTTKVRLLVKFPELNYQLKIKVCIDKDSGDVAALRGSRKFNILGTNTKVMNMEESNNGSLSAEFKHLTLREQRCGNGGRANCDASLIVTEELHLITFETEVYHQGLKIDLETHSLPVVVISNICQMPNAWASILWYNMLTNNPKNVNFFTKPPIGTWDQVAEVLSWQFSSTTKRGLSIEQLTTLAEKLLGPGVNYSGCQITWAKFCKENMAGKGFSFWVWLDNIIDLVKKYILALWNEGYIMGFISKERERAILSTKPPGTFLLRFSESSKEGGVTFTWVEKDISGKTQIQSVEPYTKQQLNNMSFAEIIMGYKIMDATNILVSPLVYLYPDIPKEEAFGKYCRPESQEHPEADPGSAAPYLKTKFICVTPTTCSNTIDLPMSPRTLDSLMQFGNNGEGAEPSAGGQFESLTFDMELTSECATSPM
Tyrosine-protein kinase JAK2 (Homo sapiens), sequence (O60674 whole entry): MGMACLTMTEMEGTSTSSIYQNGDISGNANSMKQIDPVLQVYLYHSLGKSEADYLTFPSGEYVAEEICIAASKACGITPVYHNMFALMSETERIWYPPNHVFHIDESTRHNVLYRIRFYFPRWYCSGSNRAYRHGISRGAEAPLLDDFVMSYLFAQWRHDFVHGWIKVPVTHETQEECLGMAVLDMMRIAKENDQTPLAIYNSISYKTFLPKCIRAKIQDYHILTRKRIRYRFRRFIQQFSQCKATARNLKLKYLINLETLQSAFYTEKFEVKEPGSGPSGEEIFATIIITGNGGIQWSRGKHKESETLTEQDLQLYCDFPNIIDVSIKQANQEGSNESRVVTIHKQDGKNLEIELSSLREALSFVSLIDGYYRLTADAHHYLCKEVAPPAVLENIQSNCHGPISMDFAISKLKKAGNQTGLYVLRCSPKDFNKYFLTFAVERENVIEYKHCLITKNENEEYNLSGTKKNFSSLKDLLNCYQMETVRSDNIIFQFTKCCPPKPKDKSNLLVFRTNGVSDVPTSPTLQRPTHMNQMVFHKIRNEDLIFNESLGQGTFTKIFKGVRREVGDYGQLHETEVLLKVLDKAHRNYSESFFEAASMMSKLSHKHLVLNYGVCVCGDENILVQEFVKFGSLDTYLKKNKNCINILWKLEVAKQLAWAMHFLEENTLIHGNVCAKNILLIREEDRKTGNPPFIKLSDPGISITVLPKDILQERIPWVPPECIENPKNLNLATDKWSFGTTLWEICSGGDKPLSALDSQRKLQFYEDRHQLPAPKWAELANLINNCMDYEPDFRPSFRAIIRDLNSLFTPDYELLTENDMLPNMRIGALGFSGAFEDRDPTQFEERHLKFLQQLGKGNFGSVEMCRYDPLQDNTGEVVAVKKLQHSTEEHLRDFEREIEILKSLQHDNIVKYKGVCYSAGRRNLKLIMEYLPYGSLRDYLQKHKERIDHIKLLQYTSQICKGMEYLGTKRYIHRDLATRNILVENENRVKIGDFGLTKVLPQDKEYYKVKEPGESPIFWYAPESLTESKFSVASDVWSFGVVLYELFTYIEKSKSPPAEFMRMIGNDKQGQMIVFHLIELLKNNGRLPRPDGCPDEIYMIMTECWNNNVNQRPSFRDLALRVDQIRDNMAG
Proto-oncogene tyrosine-protein kinase Src (Homo sapiens), sequence (P12931 2-536 limits assumed): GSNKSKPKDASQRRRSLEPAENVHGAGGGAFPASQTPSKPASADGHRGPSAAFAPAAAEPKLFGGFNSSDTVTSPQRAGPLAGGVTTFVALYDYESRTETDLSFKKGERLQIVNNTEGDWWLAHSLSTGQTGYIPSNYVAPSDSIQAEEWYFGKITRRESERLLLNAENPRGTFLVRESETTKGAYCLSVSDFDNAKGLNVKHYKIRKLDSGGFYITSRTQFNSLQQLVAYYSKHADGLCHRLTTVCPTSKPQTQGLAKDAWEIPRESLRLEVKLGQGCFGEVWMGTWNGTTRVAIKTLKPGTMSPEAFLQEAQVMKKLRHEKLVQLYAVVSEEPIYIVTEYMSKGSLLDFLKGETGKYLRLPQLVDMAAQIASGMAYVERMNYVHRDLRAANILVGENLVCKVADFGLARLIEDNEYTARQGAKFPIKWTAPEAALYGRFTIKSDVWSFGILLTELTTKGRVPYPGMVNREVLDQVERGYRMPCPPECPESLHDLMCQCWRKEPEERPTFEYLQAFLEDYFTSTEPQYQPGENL

Consider `C=CCN1Cc2c(nn(-c3ccc(Cl)cc3Cl)c2NC(=O)Nc2ccccc2)C(F)(F)C1c1ccc(OC)cc1` (stereo not given), for which the inhibition entry (with HCCLM3 [1]; in the experiment with HCCLM3 [5]; in [10]; in the experiment with HCCLM3 [12]; with HCCLM3 [17]) was “Active” in each case. In addition, the inhibition result is “tde” in experiment [2]; “tde” with Hep 3B2 [3]; “Dose-dependent effect” in the experiment with HepG2 [6]; “Dose-dependent effect” in experiment [7]; “Dose-dependent effect” with PLC-PRF-5 [8]; “tde” in the experiment on PLC-PRF-5 [9]. For the same compound, the inhibition entry in the experiment with Huh-7 [11] is “Dose-dependent effect”; with HepG2 [13], “tde”; in experiment [14] it was “tde”; in experiment [15] it was “tde”; in the experiment with Hep 3B2 [16], “Dose-dependent effect”; in the experiment on Huh-7 [18] it was “tde”. For the same compound, the inhibition at 100 µM stood at 80% in the experiment with HepG2 [4] and 77.4% in the experiment with MCF7. Moreover, the inhibition result with PC-3 is “inactive”.
Take `C=CCN1Cc2c(nn(-c3ccc(Cl)cc3Cl)c2NS(=O)(=O)c2ccc(F)cc2)C(F)(F)C1c1ccc(OC)cc1` (stereo not given): the inhibition result in the experiment with HepG2 [4] is “inactive”. Further, the inhibition at 100 µM with MCF7 was found to be 78.8%.
The matching figures for `C=CCN1Cc2c(nn(-c3ccc(Cl)cc3Cl)c2NS(=O)(=O)c2ccccc2)C(F)(F)C1c1ccc(OC)cc1` (stereo not given): “inactive” and 85.3%.
Take `C=CCN1Cc2c(nn(-c3ccc(Cl)cc3Cl)c2NC(=S)Nc2ccc(C(F)(F)F)cc2)C(F)(F)C1c1ccc(OC)cc1` (stereo not given): the inhibition entry in experiment [19] is “Active”. Further, the inhibition entry is “tde” with Hep 3B2 [3]; “Dose-dependent effect” in the experiment on HepG2 [6]; “Dose-dependent effect” with PLC-PRF-5 [8]; “tde” in the experiment on PLC-PRF-5 [9]; “Dose-dependent effect” with Huh-7 [11]; “tde” in the experiment with HepG2 [13]. Moreover, the inhibition result with Hep 3B2 [16] is “Dose-dependent effect”; with Huh-7 [18], “tde”. In addition, the inhibition at 100 µM amounted to 85.1% in the experiment on HepG2 [4] and 84.1% in the experiment on MCF7.

The term inhibition denotes the drop in the measured response relative to a control, in per cent.
